Converted amounts (≈) assume the structure as drawn.
Assays:
[1] = tested on: Mycobacterium tuberculosis; assay: microbe, parasite or virus in culture; details: H37Rv ATCC 27294, 168 h
Description: Antimycobacterial activity against Mycobacterium tuberculosis H37Rv ATCC 27294 after 7 days by REMA method

[2] = Cytotoxicity against human HepG2 cells after 24 hrs by MTT assay; type: cell-based
[3] = Selectivity index, ratio of CC50 for human HepG2 cells to MIC90 for Mycobacterium tuberculosis H37Rv ATCC 27294; type: toxicity, cell-based; details: read-out: Selectivity Index
[4] = tested on: Mycobacterium tuberculosis; assay: microbe, parasite or virus in culture; details: 18b, 168 h
Description: Antimycobacterial activity against non-replicating streptomycin starved Mycobacterium tuberculosis 18b after 7 days by REMA method

[5] = AUC(0 to t) in Swiss mouse at 10 mg/kg, po by LC-MS/MS analysis; type: ADME, organism-based; details: in vivo
[6] = Cmax in Swiss mouse at 10 mg/kg, po by LC-MS/MS analysis; type: ADME, organism-based; set-up: dose 10 mg/kg, route oral; details: in vivo
[7] = Half life in Swiss mouse at 10 mg/kg, po by LC-MS/MS analysis; type: ADME, organism-based; details: in vivo
[8] = Solubility of compound in simulated intestinal fluid; type: ADME
[9] = Tmax in Swiss mouse at 10 mg/kg, po by LC-MS/MS analysis; type: ADME, organism-based; details: in vivo
[10] = Solubility of compound in simulated gastric fluid; type: ADME, Stomach
[11] = Solubility of compound in water; type: physicochemical
[12] = Solubility of compound in PBS buffer; type: physicochemical

SMILES | MIC90 [1] [µM] | CC50 at 24 h [2] [µM] | selectivity ratio [3] | MIC90 [4] [µM] | other results
O=[N+]([O-])c1ccc(CN2CCN(c3ccc(F)cc3)CC2)o1 | 3.27 (≈ 0.998 µg/mL) |  |  |  | 
O=[N+]([O-])c1ccc(CN2CCN(c3ccc(Cl)cc3)CC2)o1 | 0.37 (≈ 0.119 µg/mL) | > 58 | > 11600 | 1.4 (≈ 0.45 µg/mL) | 
Cc1cccc(N2CCN(Cc3ccc([N+](=O)[O-])o3)CC2)c1C | 12.7 (≈ 4 µg/mL) |  |  |  | 
O=[N+]([O-])c1ccc(CN2CCN(c3ccccc3)CC2)o1 | 0.2 (≈ 0.0575 µg/mL) |  |  |  | 
COc1ccc(S(=O)(=O)N2CCN(Cc3ccc([N+](=O)[O-])o3)CC2)cc1 | 0.31 (≈ 0.118 µg/mL) |  |  |  | 
c1ccc(N2CCN(Cc3ccco3)CC2)cc1 | > 16.5 |  |  |  | 
O=[N+]([O-])c1ccc(CN2CCN(S(=O)(=O)c3ccccc3)CC2)o1 | 0.17 (≈ 0.0597 µg/mL) | > 56 | > 329 | > 22.7 | 
O=[N+]([O-])c1ccc(CN2CCC(c3ccccc3)CC2)o1 | 0.59 (≈ 0.169 µg/mL) |  |  |  | 
COc1cccc(N2CCN(Cc3ccc([N+](=O)[O-])o3)CC2)c1 | 0.047 (≈ 0.0149 µg/mL) | > 63 | > 1580 | 2.11 (≈ 0.67 µg/mL) | 
CS(=O)(=O)N1CCN(Cc2ccc([N+](=O)[O-])o2)CC1 | 23.1 (≈ 6.67 µg/mL) |  |  |  | 
O=[N+]([O-])c1ccc(CN2CCN(S(=O)(=O)c3ccc(F)cc3)CC2)o1 | 0.08 (≈ 0.0295 µg/mL) | > 54 | > 675 | > 21.6 | AUC(0-t) [5]: 4.22 µM·h; Cmax [6]: 3.26 µM; half-life [7]: 87.6 min; solubility [8]: 13.5 µM (≈ 4.99 µg/mL); Tmax [9]: 15 min; solubility [10]: 2170 µM (≈ 801 µg/mL); solubility [11]: 108 µM (≈ 40 µg/mL); solubility [12]: 54.1 µM (≈ 20 µg/mL)
Cc1ccc(S(=O)(=O)N2CCN(Cc3ccc([N+](=O)[O-])o3)CC2)cc1 | 0.16 (≈ 0.0585 µg/mL) | > 54 | > 338 | > 21.9 | 
CC(=O)c1ccc(N2CCN(Cc3ccc([N+](=O)[O-])o3)CC2)cc1 | 0.3 (≈ 0.0988 µg/mL) |  |  |  | 
COc1cccc(S(=O)(=O)N2CCN(Cc3ccc([N+](=O)[O-])o3)CC2)c1 | 1.3 (≈ 0.496 µg/mL) |  |  |  | 
O=[N+]([O-])c1ccc(CN2CCN(S(=O)(=O)c3ccc(C(F)(F)F)cc3)CC2)o1 | 0.5 (≈ 0.21 µg/mL) |  |  |  | 
CC(=O)c1ccc(N2CCN(Cc3ccc([N+](=O)[O-])s3)CC2)cc1 | > 11.5 |  |  |  | 

SMILES | MIC90 [1] [µM] | CC50 at 24 h [2] [µM] | selectivity ratio [3] | MIC90 [4] [µM] | other results
O=[N+]([O-])c1ccc(CN2CCN(c3cccc(Cl)c3)CC2)o1 | 0.37 (≈ 0.119 µg/mL) |  |  |  | 
O=[N+]([O-])c1ccc(CN2CCN(c3ccc(N4CCOCC4)cc3)CC2)o1 | 0.02 (≈ 0.00745 µg/mL) | > 53 | > 2650 | 0.56 (≈ 0.209 µg/mL) | AUC(0-t) [5]: 4.51 µM·h; Cmax [6]: 5.34 µM; half-life [7]: 52.8 min; Tmax [9]: 15 min; solubility [11]: 2.68 µM (≈ 0.998 µg/mL)
O=[N+]([O-])c1ccc(CN2CCN(c3ccccc3)CC2)s1 | > 13.1 |  |  |  | 
COc1ccccc1N1CCN(Cc2ccc([N+](=O)[O-])o2)CC1 | 25.2 (≈ 8 µg/mL) |  |  |  | 
CC(C)(C)c1ccc(N2CCN(Cc3ccc([N+](=O)[O-])o3)CC2)cc1 | 0.0072 (≈ 0.00247 µg/mL) | > 63 | > 700 | 12.6 (≈ 4.33 µg/mL) | AUC(0-t) [5]: 2.99 µM·h; Cmax [6]: 2.35 µM; half-life [7]: 242 min; solubility [8]: 2.9 µM (≈ 0.996 µg/mL); Tmax [9]: 15 min; solubility [10]: 1170 µM (≈ 400 µg/mL); solubility [11]: 116 µM (≈ 40 µg/mL); solubility [12]: 58.2 µM (≈ 20 µg/mL)
O=[N+]([O-])c1ccc(CN2CCN(c3ccccc3F)CC2)o1 | 6.55 (≈ 2 µg/mL) |  |  |  | 
Cc1ccc(N2CCN(Cc3ccc([N+](=O)[O-])o3)CC2)cc1 | 13.2 (≈ 3.98 µg/mL) |  |  |  | 
O=[N+]([O-])c1ccc(CN2CCN(c3ccc(Cl)cc3)CC2)s1 | > 11.8 |  |  |  | 
O=[N+]([O-])c1ccc(CN2CCN(c3cccc(C(F)(F)F)c3)CC2)o1 | 0.33 (≈ 0.117 µg/mL) |  |  |  | 
COc1ccc(N2CCN(Cc3ccc([N+](=O)[O-])o3)CC2)cc1 | 0.12 (≈ 0.0381 µg/mL) |  |  |  | 
O=[N+]([O-])c1ccc(S(=O)(=O)N2CCN(Cc3ccc([N+](=O)[O-])o3)CC2)cc1 | 0.15 (≈ 0.0595 µg/mL) | > 50 | > 333 | 20.1 (≈ 7.97 µg/mL) | 
N#Cc1cccc(N2CCN(Cc3ccc([N+](=O)[O-])o3)CC2)c1 | 0.019 (≈ 0.00593 µg/mL) | > 64 | > 3200 | 1.34 (≈ 0.419 µg/mL) | solubility [8]: 32 µM (≈ 9.99 µg/mL); solubility [10]: 2560 µM (≈ 801 µg/mL); solubility [11]: 256 µM (≈ 80 µg/mL); solubility [12]: 256 µM (≈ 80 µg/mL)
O=[N+]([O-])c1ccc(CN2CCOCC2)o1 | 31.4 (≈ 6.66 µg/mL) |  |  |  | 
CC(C)(C)OC(=O)N1CCN(Cc2ccc([N+](=O)[O-])o2)CC1 | 0.048 (≈ 0.0149 µg/mL) | > 64 | > 1600 | 1.6 (≈ 0.498 µg/mL) | AUC(0-t) [5]: 2.71 µM·h; Cmax [6]: 3.81 µM; half-life [7]: 101 min; solubility [8]: 2570 µM (≈ 800 µg/mL); Tmax [9]: 15 min; solubility [10]: 2570 µM (≈ 800 µg/mL); solubility [11]: 1290 µM (≈ 400 µg/mL); solubility [12]: 2570 µM (≈ 800 µg/mL)
COc1c(N2CCNC(C)C2)c(F)cc2c(=O)c(C(=O)O)cn(C3CC3)c12 (stereo unspecified) [GATIFLOXACIN] |  |  |  | 2.66 (≈ 0.999 µg/mL) | 
CO[C@H]1/C=C/O[C@@]2(C)Oc3c(C)c(O)c4c(O)c(c(/C=N/N5CCN(C)CC5)c(O)c4c3C2=O)NC(=O)/C(C)=C\C=C\[C@H](C)[C@H](O)[C@@H](C)[C@@H](O)[C@@H](C)[C@H](OC(C)=O)[C@@H]1C [RIFAMPIN] | 0.07 (≈ 0.0576 µg/mL) |  |  | 2.4 (≈ 1.98 µg/mL) | 
